The test system of assay [1] is mouse J774A.1 macrophages. The experiment in a line: Silica crystal-induced IL-1β production in LPS-treated J774A.1 macrophages (ELISA). The class given is cell-based. Particulars: M1 30 min, then 1 μg/ml LPS, then 200 μg/ml silica crystal 24 h, FIG. 1, p<0.001 vs silica crystals alone. How it is done: The levels of IL-1β in the culture medium were measured by ELISA. *** indicates a significant difference at the level of p<0.001 compared to […].
In FIG. 1, J774A.1 macrophages (1×10^5 cells/500 μl medium/well) were incubated for 30 min with or without Ginsenoside M1, then for 2 h with or without 1 μg/ml LPS (from Escherichia coli 0111:B4, purchased from Sigma, St. Louis, Mo.) in the continued presence or absence of Ginsenoside M1, and then for 24 h with or without 200 μg/ml silica crystal (purchased from InvivoGen, San Diego, Calif.). The levels of IL-1β in the culture medium were measured by ELISA.
For ELISA assay, 50 μl of biotinylated antibody reagent and 50 μl of culture medium were added to an anti-IL-1β, TNF-α or IL-6 precoated stripwell plate, and incubated at room temperature for 2 h. After washing the plate three times with washing buffer, 100 μl of diluted streptavidin-HRP (horseradish peroxidase) concentrate was added to each well and incubated at room temperature for 30 min. The washing process was repeated; then 100 μl of a premixed tetramethylbenzidine substrate solution was added to each well and developed at room temperature in the dark for 30 min Following the addition of 100 μl of provided stop solution to each well to stop the reaction, the absorbance of the plate was measured by a microplate reader at a 450 nm wavelength. […]
Background: In an ELISA, binding on a coated surface is turned into a signal by an enzyme label.

For assay [2], the system named is mouse J774A.1 macrophages. As to the kind of experiment: LPS-induced NLRP3 and proIL-1β expression in J774A.1 macrophages (Western blot). In kind it is cell-based. The note with it: M1 30 min, then 1 μg/ml LPS 6 h, FIG. 2. The procedure:
The levels of NLRP3 and […] in the cell lysates were measured by Western blot.
In FIG. 2, J774A.1 macrophages (2×10^6 cells/2 ml medium/dish) were incubated for 30 min with or without Ginsenoside M1, then for 6 h with or without 1 μg/ml LPS in the continued presence or absence of Ginsenoside M1. The levels of NLRP3 and proIL-1β in the cell lysates were measured by Western blot. In brief, After treatment, the cells were collected and lysed at 4° C. in lysis buffer (25 mM Tris-HCl, pH 7.5, 100 mM NaCl, 2.5 mM EDTA, 2.5 mM EGTA, 20 mM NaF, 1 mM Na3VO4, 20 mM sodium β-glycerophosphate, 10 mM sodium pyrophosphate, 0.5% Triton X-100) containing protease inhibitor cocktail (Sigma, St. Louis, Mo.), then the whole cell lysate was separated by SDS-PAGE and electrotransferred to a PVDF membrane. The membranes were incubated for 1 h at room temperature in blocking solution (5% nonfat milk in phosphate buffered saline with 0.1% Tween 20), then were incubated for 2 h at room temperature with NLRP3 or proIL-1β antibody in blocking solution. […]
J774A.1 macrophages were incubated for 30 min with or without Ginsenoside M1, then for 6 h with or without 1 μg/ml LPS in the continued presence or absence of Ginsenoside M1. The levels of NLRP3 and proIL-1β in the cell lysates were measured by Western blot.

The next assay has as its system human THP-1 macrophages. The experiment in a line: Silica crystal-induced cytokine production in THP-1 macrophages, Ginsenoside M1 added before LPS (ELISA). Particulars: M1 30 min, then 1 μg/ml LPS 5 h, then 200 μg/ml silica crystal 24 h. The class given is cell-based. How it is done:
The levels of IL-1β in the culture medium were measured by ELISA. ** indicates a significant difference at the level of p<0.01 compared to silica crystal alone.
The levels of TNF-α in the culture medium were measured by ELISA. ** and *** indicates a significant difference at the level of p<0.01 and p<0.001, respectively compared to silica crystal alone.
The levels of IL-6 in the culture medium were measured by ELISA. * and *** indicates a significant difference at the level of p<0.05 and p<0.001, respectively compared to silica crystal alone.
(§1) The mouse macrophages cell line J774A.1 and human monocytic leukemia cell line THP-1 was obtained from the American Type Culture Collection (Rockville, Md.) and cultured in RPMI 1640 medium supplemented with 10% heat-inactivated fetal bovine serum (FBS) and 2 mM L-glutamine (all from Life Technologies, Carlsbad, Calif.) at 37° C. in a 5% CO2 incubator. To induce monocyte-to-macrophage differentiation, THP-1 cells were cultured for 48 h in RPMI-1640 medium supplemented with 100 nM phorbol 12-myristate 13-acetate (Sigma-Aldrich).
In FIG. 3-5, THP-1 macrophages (1×10^5 cells/500 μl medium/well) were incubated for 30 min with or without Ginsenoside M1, then for 5 h with or without 1 μg/ml LPS in the continued presence or absence of Ginsenoside M1, and then for 24 h with or without 200 μg/ml silica crystal (purchased from InvivoGen, San Diego, Calif.). The levels of IL-1β (FIG. 3), TNF-α (FIG. 4) and IL-6 (FIG. 5) in the culture medium were measured by ELISA.
(§2) For ELISA assay, 50 μl of biotinylated antibody reagent and 50 μl of culture medium were added to an anti-IL-1β, TNF-α or IL-6 precoated stripwell plate, and incubated at room temperature for 2 h. […] The washing process was repeated; then 100 μl of a premixed tetramethylbenzidine substrate solution was added to each well and developed at room temperature in the dark for 30 min Following the addition of 100 μl of provided stop solution to each well to stop the reaction, the absorbance of the plate was measured by a microplate reader at a 450 nm wavelength. […]

In assay [3] the test system is LPS-primed THP-1 macrophages. As to the kind of experiment: Silica crystal-induced cytokine production in LPS-primed THP-1 macrophages, Ginsenoside M1 added after LPS priming (ELISA). In kind it is cell-based, human. Particulars: THP-1 primed 5 h with 1 μg/ml LPS, then M1 30 min, then 200 μg/ml silica crystal 24 h. How it is done: The levels of IL-1β in the culture medium were measured by ELISA. ** and *** indicates a significant difference at the level of p<0.01 and p<0.001, respectively compared to silica crystal alone.
The levels of TNF-α in the culture medium were measured by ELISA. ** indicates a significant difference at the level of p<0.01 compared to silica crystal alone.
The levels of IL-6 in the culture medium were measured by ELISA. *** indicates a significant difference at the level of p<0.001 compared to silica crystal alone.
as §1
In FIG. 6-8, THP-1 macrophages (1×10^5 cells/500 μl medium/well) were incubated for 5 h with or without 1 μg/ml LPS, then for 30 min with or without Ginsenoside M1 in the continued presence or absence of LPS, and then for 24 h with or without 200 μg/ml silica crystal. The levels of IL-1β (FIG. 6), TNF-α (FIG. 7) and IL-6 (FIG. 8) in the culture medium were measured by ELISA.
as §2

The subject of another assay is Male C57BL/6 mice. As to the kind of experiment: Silica crystal-induced silicosis in mice, BALF analysis. In kind it is in vivo, mouse. Particulars: 60 mg/kg oral gavage daily day 0, 1, 2. How it is done:
In FIG. 9-12, the animal experiments were conducted in accordance with the guidelines of the National Institutes of Health and approved by the Institutional Animal Care and Use Committee of National Ilan University. Male C57BL/6 mice were purchased from the National Laboratory Animal Center (Taipei, Taiwan). The animals were provided a chow diet and water ad libitum under conditions of 22-24° C., 40-70% relative humidity, and a 12 h light-dark cycle. Ginsenoside M1 (60 mg/kg body weight) was oral administered daily by gavage at day 0, 1 and 2. Silicosis in mice was induced by intratracheally exposed to 40 μl aqueous suspensions of 200 μg of silica crystals in PBS daily at day 0, 1 and 2 (n=6). Each day, mice exposed to silica crystals 4 h after Ginsenoside M1 administration. Control mice received PBS. After 4 h of the last silica crystals exposure, all mice were sacrificed using neck breaking, and a bronchoalveolar lavage was carried out by repeatedly instillating and withdrawing 1 ml of 1% BSA/PBS solution three consecutive times. The levels of IL-1β and IL-6 in the bronchoalveolar lavage fluid (BALF) were measured by ELISA. The total cell number in the BALF was counted by a hematocytometer and protein concentration in the BALF was determined by protein assay dye.
For ELISA assay, 50 μl of biotinylated antibody reagent and 50 μl of culture medium were added to an anti-IL-1β, TNF-α or IL-6 precoated stripwell plate, and incubated at room temperature for 2 h. After washing the plate three times with washing buffer, 100 μl of diluted streptavidin-HRP (horseradish peroxidase) concentrate was added to each well and incubated at room temperature for 30 min. The washing process was repeated; then 100 μl of a premixed tetramethylbenzidine substrate solution was added to each well and developed at room temperature in the dark for 30 min Following the addition of 100 μl of provided stop solution to each well to stop the reaction, the absorbance of the plate was measured by a microplate reader at a 450 nm wavelength.

On to “20-O-β-D-glucopyranosyl-20(S)-protopanaxadiol [Ginsenoside M1]”, for which the “IL-1β secretion in the culture medium” value in assay [1] was “reduced”. Moreover, the “level of NLRP3 in the cell lysates” value in assay [2] is listed as “reduced”. The “level of proIL-1β in the cell lysates” value in assay [2] is reported as “reduced”. In addition, the IL-1β production result with human THP-1 macrophages (FIG. 3, p<0.01) is listed as “reduced”; in assay [3] (FIG. 6, p<0.01 and p<0.001), “reduced”. Also, the TNF-α production result is “reduced” in the assay on human THP-1 macrophages (FIG. 4, p<0.01 and p<0.001); “reduced” in assay [3] (FIG. 7, p<0.01). The IL-6 production result in the assay on human THP-1 macrophages (FIG. 5, p<0.05 and p<0.001) is reported as “reduced”; in assay [3] (FIG. 8, p<0.001), “reduced”. Moreover, in the assay on Male C57BL/6 mice (intratracheal 200 μg silica crystals 4 h after dosing, FIG. 9, p<0.001), the “silica crystal-induced IL-1β production in the murine BALF” value was “significantly reduced”. Besides, in the assay on Male C57BL/6 mice (intratracheal 200 μg silica crystals 4 h after dosing, FIG. 10, p<0.001), the “silica crystal-induced IL-6 production in the murine BALF” value is “significantly reduced”. Moreover, the “silica crystal-induced increase of total cell number in BALF” value in the assay with Male C57BL/6 mice (intratracheal 200 μg silica crystals, hematocytometer, FIG. 12, p<0.01) was “significantly inhibited”. The “silica crystal-induced increase of total protein concentration in BALF” value with Male C57BL/6 mice (intratracheal 200 μg silica crystals, protein assay dye, FIG. 11, p<0.001) was “significantly inhibited”.

These data come from patent US10130647B2, “Use of ginsenoside M1 for preventing or treating silicosis” (WELLHEAD […]., priority 2015, dated 2018).
